Experimental data taken from patent US20040198653A1, “Pharmaceutical compositions which inhibit proliferation of pituitary adenomas and method of use thereof” (priority 2001, published 2004).
Where a SMILES comes first, the peptide text is derived from it. Bridges are numbered along the chain shown (N, C = ends). [ ]: non-standard residue; d: D form. The star is where a group is joined. Gly(N-2-aminoethyl) = NCCNCC(=O)O; 3Pal = N[C@@H](Cc1cccnc1)C(=O)O; Tic = O=C(O)[C@@H]1Cc2ccccc2CN1; X1 = Nc1ccn(CC(=O)*)c(=O)n1; Abu = CC[C@H](N)C(=O)O; Bn = c1ccc(C*)cc1

Tests used:
pituitary adenoma cells [1] = experiment: Cell proliferation: CELLTITER 96 Aqueous (MTS/PMS) assay, number of viable cells; assay type: cell-based; details: 10^-9 M, 48 hours incubation, medium with 10% FBS, absorbance at 490 nm
Description: The effects of SSTR selective agonists on pituitary adenoma cell proliferation were assessed by the CELLTITER 96 Aqueous Non-Radioactive Cell Proliferation Assay (Promega, Milano, Italy), a colorimetric method for determining the number of viable cells in proliferation assays. The assay contains solutions of a tetrazolium compound (Owen's reagent; MTS) and an electron coupling reagent (phenazine methosulphate; PMS). MTS is bioreduced by cells into a formazan that is soluble in tissue culture medium. The absorbance of the formazan at 490 nm can be measured directly from 96 well assay plates (Zatelli M C, et al., 2000 J Clin Endocrinol Metab 85: 847-852; Cory A H, et al., 1991 Cancer Commun 3: 207-212). The conversion of MTS into the aqueous soluble formazan is accomplished by dehydrogenase enzymes found in metabolically active cells. The quantity of formazan product as measured by the amount of 490 nm absorbance is directly proportional to the number of living cells in culture.
Briefly, adenoma cells were plated in 96-multiwell plates (2×10^4 cells/well) and incubated for 48 hours in a medium supplemented with 10% FBS in the presence or absence of each SRIF analogue (including in one instance, compounds 2 & 3 together) at a concentration of 10^−9 M. Treatments were renewed by adding fresh analogues to the wells after the first 24 hours of incubation. At the end of the incubation period, 20 μl of a combined MTS/PMS solution was added to each well with a repeating pipette, and the plates were incubated for an additional 4 hours at 37° C. in a humidified 5% CO2 atmosphere. The absorbance at 490 nm was then recorded using an ELISA plate reader (EASIA Reader, Medgenix). Results (absorbance at 490 nm) were obtained by determining the mean value of at least six experiments in eight replicates.

pituitary adenoma cells [2] = experiment: DNA synthesis: [3H]thymidine incorporation in pituitary adenoma cells; assay type: cell-based; details: 10^-9 M, 48 h incubation, medium with 10% FBS, pituitary cells from functioning adenomas
Description: The effects of SSTR selective agonists and antagonists on pituitary adenoma cell DNA synthesis were assessed by determining the rate of [^3H]thymidine incorporation, as previously described (Davis L, et al., 1994 In: Basic methods in Molecular Biology, 2nd edition, Appleton & Lange, Norwalk, Conn., USA: 611-646, degli Uberti E C, et al., 1991 J Clin Endocrinol Metab 72: 1364-1371).
Approximately 10^5 pituitary cells from two functioning adenomas were plated in quadruplicate wells the day of surgery and treated the day after with SRIF and with Compounds 1, 2, 3, and LANREOTIDE at 10^−9M. After 48 h incubation in a medium supplemented with 10% FBS in the presence of [^3H]thy (1.5 μCi/mL; 87 Ci/mmol) with or without each SRIF analogue. Treatments were renewed by adding fresh analogues to the wells after the first 24 h of incubation, without removing the medium.
After incubation, the cells were washed three times with ice-cold PBS and twice with 10% ice-cold trichloroacetic acid (TCA). TCA-precipitated material was solubilized in 500 μL 0.2 mol/L sodium hydroxide and 0.1% SDS. Cell-associated radioactivity was then counted in a scintillation spectrometer. Results (counts per min per well) were obtained by determining the mean value of at least six experiments in quadruplicate. The viability of cells in control and treated cultures was evaluated by Trypan blue staining.

## C[C@@H](OCc1ccccc1)[C@H](NC(=O)[C@H]1CSSC[C@@H](NC(=O)CN(CCN)C(=O)Cn2ccc(N)nc2=O)C(=O)N[C@@H](Cc2cccnc2)C(=O)N[C@H](Cc2c[nH]c3ccccc23)C(=O)N[C@@H](CCCCN)C(=O)N1)C(=O)N[C@@H](Cc1ccc(O)cc1)C(N)=O [Compound 1, Caeg-c(D-Cys-Pal-D-Trp-Lys-D-Cys)-Thr(Bzl)-Tyr-NH2] (X1-[Gly(N-2-aminoethyl)][dC][3Pal][dW]K[dC]T(Bn)Y-NH2; disulfide 2-6)
Pituitary adenoma cells [1]
  % Reduction Viable Cells: 28.5%

## CC[C@@H]1NC(=O)[C@H](CCCCN)NC(=O)[C@@H](Cc2c[nH]c3ccccc23)NC(=O)[C@H](Cc2ccc(O)cc2)NC(=O)[C@@H]2Cc3ccccc3CN2C(=O)[C@H](Cc2ccccc2)NC1=O [Compound 2, cyclo[Tic-Tyr-D-Trp-Lys-Abu-Phe]] (cyclo([Tic]Y[dW]K[Abu]F))
Pituitary adenoma cells [2]
  % Reduction [3H]Thymidine: 25. %
Pituitary adenoma cells [1]
  % Reduction Viable Cells: 12.5%

## C[C@@H](O)[C@H](NC(=O)[C@H](Cc1ccccc1)NC(=O)[C@@H](NC(=O)[C@H](CCCCN)NC(=O)[C@@H](Cc1c[nH]c2ccccc12)NC(=O)[C@H](Cc1c[nH]c2ccccc12)NC(=O)[C@H](Cc1ccccc1)NC(=O)[C@H](N)Cc1ccccc1)[C@@H](C)O)C(N)=O [Compound 3, D-Phe-Phe-Trp-D-Trp-Lys-Thr-Phe-Thr-NH2]
Pituitary adenoma cells [2]
  % Reduction [3H]Thymidine: 15.5%

## CC(C)[C@@H]1NC(=O)[C@H](CCCCN)NC(=O)[C@@H](Cc2c[nH]c3ccccc23)NC(=O)[C@H](Cc2ccc(O)cc2)NC(=O)[C@@H](NC(=O)[C@H](N)Cc2ccc3ccccc3c2)CSSC[C@@H](C(=O)N[C@H](C(N)=O)[C@@H](C)O)NC1=O [LANREOTIDE, D-Nal-cyclo[Cys-Tyr-D-Trp-Lys-Val-Cys]-Thr-NH2, reference compound]
Pituitary adenoma cells [2]
  % Reduction [3H]Thymidine: 25. %
Pituitary adenoma cells [1]
  % Reduction Viable Cells: 12. %

## C[C@H](N)C(=O)NCC(=O)N[C@H]1CSSC[C@@H](C(=O)O)NC(=O)[C@H](CO)NC(=O)[C@H]([C@@H](C)O)NC(=O)[C@H](Cc2ccccc2)NC(=O)[C@H]([C@@H](C)O)NC(=O)[C@H](CCCCN)NC(=O)[C@H](Cc2c[nH]c3ccccc23)NC(=O)[C@H](Cc2ccccc2)NC(=O)[C@H](Cc2ccccc2)NC(=O)[C@H](CC(N)=O)NC(=O)[C@H](CCCCN)NC1=O [SRIF, reference compound]
Pituitary adenoma cells [1]
  % Reduction Viable Cells: 8. %
